Data taken from article PMC11532403 (Signal Transduction and Targeted Therapy, 2024).
Like-named read-outs stand apart in the source and are kept apart here.

Experiments:
[1] = tested on: Baf3-CCDC6-RET M918T cells; test: Proliferation assay (CellTiter-Glo); type: cell-based, murine; conditions: Mus musculus, read-out: Cellular Viability IC50
Experimental: (§1) The cell lines HEK293T, Baf3, TT cell and NIH-3T3 were obtained from the Cell Resource Center, Peking Union Medical College (PCRC). HEK293T and NIH-3T3 were maintained in DMEM high glucose medium (#C3113-0500, Vivacell) supplemented with 10 % FBS (#10500064, Gibco) and 1 % Penicillin-Streptomycin (#15140122, Gibco). The murine Pro‐B cell line Baf3 was cultured in RPMI 1640 medium (#C3010, Vivacell) supplemented with 10 % FBS, 1 % Penicillin-Streptomycin and 1 ng/mL recombinant murine interleukin-3 (#213-13, PeproTech). All stably transformed BaF3 cells were cultured in RPMI 1640 without IL‐3. The TT MTC cell was grown in Ham's F-12K medium (#21127022, Gibco) supplemented with 10 % FBS and 1 % Penicillin-Streptomycin. Cells were cultured at 37 °C under 5 % CO2 and high humidity conditions.
(§2) KIF5B-RET, CCDC6-RET and mutations were cloned into pCDHL vector and were verified by sequencing. Reah RET expression vectors were separately co‐transfected with psPAX2 and pMD2.G packaging plasmids into 60-70% confluent HEK 293T cells maintained in 2 mL of culture medium in six‐well plates using Polyethyleneimine (PEI) transfection grade. Virus containing media was harvested after 48 h and filtered with 0.45 μm membrane and stored at -80 °C prior to infection. For infection of Ba/F3 cells, 1 mL of viral supernatant and 8 μg/mL polybrene were added to 5 million cells per well in six‐well plates. Infected cells were selected with the addition of 1 μg/mL puromycin for 2 weeks in RPMI-1640/ 10% FBS/ 1 ng/mL IL-3 medium. Subsquently, puromycin-resistant cells were cultured in IL-3-free medium for 1 week and RET fusion proteins were confirmed by immunoblot analysis.
(§3) Cell viability was assessed by luminescence using CellTiter-Glo 2.0 assay (Promega). IC50 curve fitting was performed using GraphPad Prism 9.0.

[2] = tested on: Baf3-CCDC6-RET V804M cells; test: Proliferation assay (CellTiter-Glo); type: cell-based, murine; conditions: Mus musculus, read-out: Cellular Viability IC50
Experimental: as §1, §2, §3

Baf3-CCDC6-RET WT cells = test: Proliferation assay (CellTiter-Glo); type: cell-based, murine; conditions: Mus musculus, read-out: Cellular Viability IC50
Experimental: as §1, §2, §3

[3] = tested on: Baf3-KIF5B-RET M918T cells; test: Proliferation assay (CellTiter-Glo); type: cell-based, murine; conditions: Mus musculus, read-out: Cellular Viability IC50
Experimental: as §1, §2, §3

[4] = tested on: Baf3-KIF5B-RET V804M cells; test: Proliferation assay (CellTiter-Glo); type: cell-based, murine; conditions: Mus musculus, read-out: Cellular Viability IC50
Experimental: as §1, §2, §3

Baf3-KIF5B-RET WT cells = test: Proliferation assay (CellTiter-Glo); type: cell-based, murine; conditions: Mus musculus, read-out: Cellular Viability IC50
Experimental: as §1, §2, §3

NIH-3T3 cells = test: Proliferation assay (CellTiter-Glo); type: cell-based, murine; conditions: Mus musculus, NIH3T3; NIH-3T3 (RET-negative); read-out: Cellular Viability IC50
Experimental: The cell lines HEK293T, Baf3, TT cell and NIH-3T3 were obtained from the Cell Resource Center, Peking Union Medical College (PCRC). […] All stably transformed BaF3 cells were cultured in RPMI 1640 without IL‐3. […] Cells were cultured at 37 °C under 5 % CO2 and high humidity conditions. […] Cell viability was assessed by luminescence using CellTiter-Glo 2.0 assay (Promega). IC50 curve fitting was performed using GraphPad Prism 9.0.

cardiovascular system = test: Cardiovascular safety pharmacology; type: in vivo; conditions: males 2, 4, 6 mg/kg; females 4, 8, 12 mg/kg oral
Experimental: In the safety pharmacological study of cardiovascular effects, four male and four female beagles with buried implants were selected. […] The animals were evaluated by cage-side and detailed clinical observations, electrocardiogram, heart rate, body temperature and blood pressure.

central nervous system = test: Central nervous system safety pharmacology; type: in vivo, SD rats; conditions: single oral, males 15-40, females 30-80 mg/kg
Experimental: All rats were evaluated for cage-side observation, detailed clinical observation, body weight and neurofunctional behavioural indices including in-cage observation, restraint observation, field observation, stimulus reflex observation and body temperature.

Pharmacokinetics in rats = type: in vivo, SD rats
[5] = Plasma protein binding, rapid equilibrium dialysis; type: in vitro ADME; conditions: dog, read-out: Plasma protein binding rate (converted)
[6] = Plasma protein binding, rapid equilibrium dialysis; type: in vitro ADME; conditions: human, read-out: Plasma protein binding rate (converted)
CYP2C19 = target: T1, CYP2C19 (Homo sapiens, UniProt P33261); test: CYP inhibition in human liver microsomes; type: in vitro ADME; conditions: 0.5-25 μM
T1 construct: substrates of different CYP450 enzymes in mixed human liver microsomes; from tissue; host or cells: mixed human liver microsomes

beagles = test: 28-day repeat-dose toxicity; type: in vivo
[7] = tested on: Salmonella typhimurium and Escherichia coli; type: cell-based
[8] = both sexes, SD, rat, plasma, iv, 1 mg/kg i.v.
[9] = both sexes, SD, rat, plasma, po, gavage 5 mg/kg
[10] = both sexes, SD, rat, plasma, po, gavage 20 mg/kg
[11] = both sexes, SD, rat, plasma, po, gavage 50 mg/kg

T1 sequence (P33261 whole entry): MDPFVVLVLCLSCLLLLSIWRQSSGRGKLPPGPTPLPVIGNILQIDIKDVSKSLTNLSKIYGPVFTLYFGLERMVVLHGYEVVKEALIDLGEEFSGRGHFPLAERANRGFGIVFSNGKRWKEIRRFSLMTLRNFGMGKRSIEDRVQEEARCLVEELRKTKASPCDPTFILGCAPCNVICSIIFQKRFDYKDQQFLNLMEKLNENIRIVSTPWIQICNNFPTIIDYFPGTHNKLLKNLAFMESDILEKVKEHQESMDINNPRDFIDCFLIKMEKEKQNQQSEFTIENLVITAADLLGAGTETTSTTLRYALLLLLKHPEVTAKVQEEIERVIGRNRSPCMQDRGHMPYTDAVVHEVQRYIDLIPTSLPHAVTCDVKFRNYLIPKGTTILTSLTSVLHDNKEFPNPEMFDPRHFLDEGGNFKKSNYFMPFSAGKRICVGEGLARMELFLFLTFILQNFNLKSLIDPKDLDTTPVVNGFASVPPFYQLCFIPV

## COc1ccc(CN2C3CC2CN(c2ccc(-c4cc(N5CC(C)(O)C5)cn5ncc(C#N)c45)cn2)C3)cn1 [SY-5007, 6-(3-hydroxy-3-methylazetidin-1-yl)-4-(6-(6-((6-methoxypyridin-3-yl)methyl)-3,6-diazabicyclo[3.1.1]heptan-3-yl)pyridin-3-yl)pyrazolo[1,5-a]pyridine-3-carbonitrile]
[1]
  IC50: 5.44 nM
[2]
  IC50: 27.1 nM
Baf3-CCDC6-RET WT cells
  IC50: 10.2 nM
[3]
  IC50: 13.6 nM
[4]
  IC50: 45.3 nM
Baf3-KIF5B-RET WT cells
  IC50: 9.65 nM
NIH-3T3 cells
  IC50: > 5 µM
Cardiovascular system
  Cardiovascular effects: None of the changes were found to be related to the study drug
Central nervous system
  CNS effects: did not affect any of the assessed neurofunctional-behavioural parameters
Pharmacokinetics in rats; [8]
  clearance: 3.42 mL/min/kg
  half-life: 200 min
Pharmacokinetics in rats; both sexes, SD, rat, plasma, iv, 1 mg/kg i.v., read-out: Vss
  Vd: 0.697 L/kg
Pharmacokinetics in rats; [9]
  AUC(0-inf): 11900 ng·h/mL
  Cmax: 2190 ng/mL
Pharmacokinetics in rats; [10]
  AUC(0-inf): 48100 ng·h/mL
  Cmax: 7150 ng/mL
Pharmacokinetics in rats; [11]
  AUC(0-inf): 112000 ng·h/mL
  Cmax: 12600 ng/mL
Pharmacokinetics in rats; both sexes, SD, rat, plasma, po, gavage 5-50 mg/kg
  half-life: 217 to 269 min
Pharmacokinetics in rats; both sexes, SD, rat, plasma, po, gavage 5-50 mg/kg, read-out: MRTINF_obs
  MRT inf: 4.92 to 6.96 h
Pharmacokinetics in rats; both sexes, SD, rat, plasma, po, gavage 5-50 mg/kg, read-out: Oral bioavailability (F)
  bioavailability: 39.1 to 42.1%
Pharmacokinetics in rats; both sexes, SD, rat, plasma, po, single gavage 5, 20, 50 mg/kg
  Tmax: 0.25 to 2 h
Pharmacokinetics in rats; males, 20 mg/kg once daily 7 days
  AUC0-24h increase day 7 vs day 1: 47.3%
[5]
  fraction unbound: 0.042
[6]
  fraction unbound: 0.061
CYP2C19
  IC50: > 25 µM
beagles; female Beagle, GLP long toxicity study
  HNSTD: 8 mg/kg
beagles; females, 28 days
  HNSTD: 8 mg/kg
beagles; male Beagle, GLP long toxicity study
  HNSTD: 4 mg/kg
beagles; males, 28 days
  HNSTD: 4 mg/kg
beagles; preclinical Beagle dogs, repeated dosing
  Bleeding tendency: gastric mucosa and ileum findings: ? This drug was found to have gastric mucosal reddening and ileal discolouration in preclinical SD rats and Beagle dogs in repeated dosing tests, so the relevant provisions were made.
beagles; preclinical Beagle repeated administration
  Electrolyte abnormalities (blood PK): ? Abnormalities such as blood PK were found in the preclinical SD rat and Beagle repeated administration test of this product, and the relevant regulations were carried out in consideration of the fact that similar mechanism of action drugs have been reported.
[7]
  Ames test result: negative
